Patent US20230095836A1, “SUBSTITUTED 5,6-DIPHENYL-3(2H)-PYRIDAZINONES FOR USE AS FUNGICIDES” (FMC Corporation, priority 2020, published 2023)

Tests used:
Assay type in all cases: in vivo
Settings in all cases: 50 ppm
Alternaria solani = assay: Test F: test suspension sprayed on tomato seedlings, inoculated next day with Alternaria solani (tomato early blight); visual disease rating (100 = 100% disease control, 0 = no control; dash = not tested)
Method: (§1) The resulting test suspensions were then used in Tests A-F. The test suspension was sprayed to the point of run-off on tomato seedlings. The following day the seedlings were inoculated with a spore suspension of Alternaria solani (the causal agent of tomato early blight) and incubated in a saturated atmosphere at 27° C. for 48 h, and then moved to a growth chamber at 20° C. for 3 days, after which time visual disease ratings were made. A rating of 100 indicates 100% disease control and a rating of 0 indicates no disease control (relative to the controls). A dash (—) indicates the compound was not tested.

Phakopsora pachyrhizi = assay: Test D: test solution sprayed on soybean seedlings, inoculated next day with Phakopsora pachyrhizi (Asian soybean rust); visual disease rating (100 = 100% disease control, 0 = no control; dash = not tested)
Text: General protocol for preparing test suspensions for Tests A-F: the test compounds were first dissolved in acetone in an amount equal to 3% of the final volume and then suspended at the desired concentration (in ppm) in acetone and purified water (50/50 mix by volume) containing 250 ppm of the surfactant PEG400 (polyhydric alcohol esters). The resulting test suspensions were then used in Tests A-F.
The test solution was sprayed to the point of run-off on soybean seedlings. The following day the seedlings were inoculated with a spore suspension of Phakopsora pachyrhizi (the causal agent of Asian soybean rust) and incubated in a saturated atmosphere at 22° C. for 24 h and then moved to a growth chamber at 22° C. for 8 days, after which time visual disease ratings were made.
A rating of 100 indicates 100% disease control and a rating of 0 indicates no disease control (relative to the controls). A dash (—) indicates the compound was not tested.

[1] = test system: Blumeria graminis f. sp. tritici; assay: Test C: test suspension sprayed on wheat seedlings, inoculated next day with Blumeria graminis f. sp. tritici (wheat powdery mildew); visual disease rating (100 = 100% disease control, 0 = no control; dash = not tested)
Method: as §1, with “on wheat” for “on tomato”, “spore dust” for “spore suspension”, “of Blumeria graminis f. sp. tritici, (also known as Erysiphe graminis f. sp. tritici, the” for “of Alternaria solani (the”, “of wheat powdery mildew)” for “of tomato early blight)”, “in” for “in a saturated atmosphere at 27° C. for 48 h, and then moved to”, “for 8” for “for 3”

Zymoseptoria tritici = assay: Test A: test solution sprayed on wheat seedlings, inoculated next day with Zymoseptoria tritici (wheat leaf blotch); disease rating (100 = 100% disease control, 0 = no control; dash = not tested)
Method: The resulting test suspensions were then used in Tests A-F. The test solution was sprayed to the point of run-off on wheat seedlings. The following day the seedlings were inoculated with a spore suspension of Zymoseptoria tritici (the causal agent of wheat leaf blotch) and incubated in a saturated atmosphere at 24° C. for 48 h, and then moved to a growth chamber at 20° C. for 17 days, after which time disease ratings were made. A rating of 100 indicates 100% disease control and a rating of 0 indicates no disease control (relative to the controls). A dash (—) indicates the compound was not tested.

[2] = test system: Puccinia recondita f. sp. tritici; assay: Test B: test solution sprayed on wheat seedlings, inoculated next day with Puccinia recondita f. sp. tritici (wheat leaf rust); disease rating (100 = 100% disease control, 0 = no control; dash = not tested)
Text: The resulting test suspensions were then used in Tests A-F. The test solution was sprayed to the point of run-off on wheat seedlings. […] A rating of 100 indicates 100% disease control and a rating of 0 indicates no disease control (relative to the controls). A dash (—) indicates the compound was not tested.

Botrytis cinerea = assay: Test E: test suspension sprayed on tomato seedlings, inoculated next day with Botrytis cinerea (tomato Botrytis); visual disease rating (100 = 100% disease control, 0 = no control; dash = not tested)
Method: as §1, with “Botrytis cinerea” for “Alternaria solani”, “Botrytis)” for “early blight)”, “20°” for “27°”, “24°” for “20°”

SMILES	Test F disease control rating (Alternaria solani) [%]	Test D disease control rating (Phakopsora pachyrhizi) [%]	Test C disease control rating [1] [%]	Test A disease control rating (Zymoseptoria tritici) [%]	Test B disease control rating [2] [%]	Test E disease control rating (Botrytis cinerea) [%]	pest or weed control at 50 ppm (Alternaria solani) [%]	pest or weed control at 50 ppm (Phakopsora pachyrhizi) [%]	pest or weed control at 50 ppm [1] [%]	pest or weed control at 50 ppm (Zymoseptoria tritici) [%]	pest or weed control at 50 ppm [2] [%]	pest or weed control at 50 ppm (Botrytis cinerea) [%]
COc1ccc(Cl)c(-c2nn(C)c(=O)c(OC)c2-c2c(F)cccc2F)c1 [Compound 50]	100	36	99	100	98	96						
COc1cc(C#N)c(Cl)c(-c2nn(C)c(=O)c(Cl)c2-c2ccc(F)cc2Cl)c1 [Compound 51]	100	100	99	100	100	96						
COc1cc(-c2nn(C)c(=O)c(Cl)c2-c2ccc(F)cc2Cl)cc(C#N)c1Cl [Compound 52]	100	98	99	100	100	92						
COc1c(-c2ccc(F)cc2Cl)c(-c2cc(C#N)ccc2Cl)nn(C)c1=O [Compound 53]	40	68	99	100	100	92						
COc1cc(OC)cc(-c2nn(C)c(=O)c(Cl)c2-c2ccc(F)cc2Cl)c1 [Compound 55]	99	99	98	99	100	99						
Cn1nc(-c2ccc(F)cc2Cl)c(-c2ccc(F)cc2Cl)c(Cl)c1=O [Compound 60]	99	93	99	100	100	98						
COc1cc(OC)c(Br)c(-c2nn(C)c(=O)c(Br)c2-c2ccc(F)cc2Cl)c1 [Compound 61]	99	99	94	100	100	100						
COc1cc(OC)c(Br)c(-c2nn(C)c(=O)c(C)c2-c2ccc(F)cc2Cl)c1 [Compound 64, 6-(2-bromo-3,5-dimethoxyphenyl)-5-(2-chloro-4-fluorophenyl)-2,4-dimethyl-3(2H)-pyridazinone]							100	100	100	100	100	100
COc1cc(OC)cc(-c2nn(C)c(=O)c(C)c2-c2ccc(F)cc2Cl)c1 [Compound 65]	99	94	98	99	100	100						
COc1cc(OC)cc(-c2nn(C)c(=O)c(Br)c2-c2ccc(F)cc2Cl)c1 [Compound 67]	99	98	95	99	100	99						
COc1ccc(Cl)c(-c2nn(C)c(=O)c(Br)c2-c2c(F)cccc2F)c1 [Compound 69]	100	100	100	100	99	100						
Cn1nc(-c2ccc(F)cc2Cl)c(-c2ccc(F)cc2Cl)cc1=O [Compound 70]	0	52	76	93	41	98						
COc1cc(C#N)cc(-c2nn(C)c(=O)cc2-c2c(F)cccc2F)c1 [Compound 71]	0	0	0	8	0	16						
Cn1nc(-c2ccccc2F)c(-c2ccc(F)cc2Cl)c(Cl)c1=O [Compound 72]	99	75	99	100	99	98						
Cn1nc(-c2ccccc2Cl)c(-c2ccc(F)cc2Cl)c(Cl)c1=O [Compound 73]	99	97	99	100	100	99						
CCn1nc(-c2cc(OC)cc(OC)c2Br)c(-c2c(F)cccc2F)c(OC)c1=O [Compound 74]	0	75	98	100	99	99						
CCn1nc(-c2cc(OC)cc(OC)c2Cl)c(-c2c(F)cccc2F)c(OC)c1=O [Compound 75]	0	69	98	100	99	97						
COc1cc(F)cc(-c2nn(C)c(=O)c(Cl)c2-c2ccc(F)cc2Cl)c1 [Compound 76]	99	99	99	100	100	97						
